Source: patent publication US10259848B2, “Compositions and methods comprising hydrocarbon-stapled polypeptides” (Dana-Farber Cancer Institute, Inc., priority 2008, dated 2019)
Read-outs that look alike come from different tables or passages of the source. Positions of bridges follow the written chain, without caps; N, C: chain ends. Non-standard residues stand in square brackets, D forms with d. Residues, ends and D or L forms follow the SMILES beside them. No end group written: not given here. S5 = C=CCCC[C@](C)(N)C(=O)O; Nle = CCCC[C@H](N)C(=O)O

Key:
syncytia formation = test: HIV syncytial formation assay; assay type: cell-based, HIV-1
Description: Functional assays can also be used to evaluate the modified polypeptides activity. In culture, multinucleated giant cells or “syncytia” form as a result of direct cell-cell fusion between HIV-1-infected and uninfected CD4-positive cells. In the syncytia formation assay, an indicator cell line expressing the CD4 receptor, and a fusogenic cell line that lacks the CD4 receptor but contains HIV-1 proteins on the surface, fuse to generate 70-100 multinucleated giant cells in culture within 48 h. Syncytia are then counted using an inverted microscope. The ability of stabilized alpha helix of gp41 (SAH-gp41) compounds to inhibit syncytia formation in a dose-responsive fashion is used as a functional measure of fusion inhibition, for which IC50s can be determined and compared with peptides T20 and T649 (Brenner, T. J., et al. The Lancet, 1991. 337(8748): p. 1001-1005; Madani, N., et al., Journal of Virology, 2007. 81(2): p. 532-538).
The compounds of the invention were assayed for inhibition of syncytial formation using methods well known to those skilled in the art. Equal amounts of either T20/gp41(638-673) or SAH-gp41(626-645)A were added to the media.

[1] = Circular dichroism, calculated α-helical content; assay type: physicochemical; details: for α-helical content: comparative CD spectra, 20-mer residues 626-645
Description: The α-helicity of stapled modified polypeptides can be compared to their unmodified counterparts by circular dichroism. CD spectra can be obtained on a Jasco J-710 or Aviv spectropolarimeter at 20° C. using the following standard measurement parameters: wavelength, 190-260 nm; step resolution, 0.5 nm; speed, […]; accumulations, 10; response, 1 sec; bandwidth, 1 nm; path length, 0.1 cm. The α-helical content of each peptide is calculated by dividing the mean residue ellipticity [Θ]222obs by the reported [Θ]222obs for a model helical peptide (Forood, B., E. J. Feliciano, and K. P. Nambiar, PNAS, 1993. 90(3): p. 838-842; J. Martin Scholtz, Biopolymers, 1991. 31(13): p. 1463-1470; Lawless, M. K., et al., Biochemistry, 1996. 35(42): p. 13697-13708) or using, for example, the Aviv machine using CDNN software developed by Brohm in order to deduce five different secondary structure fractions (helix, parallel and antiparallel beta-sheet, beta-turn and random coil). Protein Engineering, 1992. 5(3); p. 191-195
To optimize the activity of tSAH-gp41 peptides, an alternative strategy based upon inserting one or more hydrocarbon staples into the full-length gp41-HR-2 constructs was pursued (FIG. 11, 12).

HIV-1 HXBc2 = test: Luciferase-based HIV infectivity assay, HXBc2; assay type: cell-based; details: compared to T20
Description: Recombinant HIV-1 bearing the envelope glycoproteins from three distinct HIV-1 strains, HXBc2, ADA, and HXBc2P 3.2, and a negative control virus bearing the amphotropic murine leukemia virus (A-MLV) envelope glycoproteins, were evaluated.

FIGURE 16F = test: FIGURE 16F
Text: Table printed on a drawing sheet, FIGURE 16F

FIGURE 16C = test: FIGURE 16C
Text: Table printed on a drawing sheet, FIGURE 16C
First reader's note: The sheet prints two blocks (626-662 and 638-673 series) under one head; per the description the half-lives are in the presence of chymotrypsin at pH 7.

pepsin = test: Protease exposure under acidic conditions: pepsin, pH 2; details: pepsin solution (protease exposure under acidic conditions)

## CCCC[C@H](NC(C)=O)C(=O)N[C@H](C(=O)N[C@@H](Cc1c[nH]c2ccccc12)C(=O)N[C@@]1(C)CCCC=CCCC[C@@](C)(C(=O)N[C@@H](CCC(=O)O)C(=O)N[C@H](C(=O)N[C@@H](CC(N)=O)C(=O)N[C@@H](CC(N)=O)C(=O)N[C@@H](Cc2ccc(O)cc2)C(=O)N[C@H](C(=O)N[C@@H](CO)C(=O)N[C@@H](CC(C)C)C(=O)N[C@H](C(=O)N[C@@H](Cc2c[nH]cn2)C(=O)N[C@@H](CO)C(=O)N[C@@H](CC(C)C)C(N)=O)[C@@H](C)CC)[C@@H](C)O)[C@@H](C)CC)NC(=O)[C@H](CC(=O)O)NC(=O)[C@H](Cc2c[nH]c3ccccc23)NC(=O)[C@H](CCC(=O)O)NC1=O)[C@@H](C)O [SAH-gp41(626-645)(A)] (Ac-[Nle]TW[S5]EWD[S5]EINNYTSLIHSL-NH2; staple 4-8; N-terminus and C-terminus assumed)
Syncytia formation
  inhibition of syncytia formation (words): markedly enhanced inhibitory activity
Syncytia formation; listed as SAH-gp41(626-645)A
  inhibition of syncytia formation (words): inhibited syncytial formation more so than unmodified control polypeptides
[1]
  α-helical content: 48%
HIV-1 HXBc2
  anti-HXBc2 activity: significant anti-HXBc2 activity

## SAH-gp41(626-662)(A,F): doubly stapled gp41(626-662) HIV-1 fusion inhibitor peptide (LTWAEWDAEINNYTSLIHSLIEESQNQAEKNAQELLE; not fully specified (bridges); also: doubly stapled, places not given here)
FIGURE 16F
  half-life: 34 h
FIGURE 16C
  half-life: 5.02 h

## enfuvirtide
pepsin
  half-life at 25 μM: 4 min
[1]; CD spectra at physiologic pH
  calculated α-helical content: ~25%

## gp41(626-645): unstapled 20-mer truncation of T649v consisting of residues 626-645 ([Nle]TW[Nle]EWDREINNYTSLIHSL) [reference compound]
Syncytia formation
  inhibition of syncytia formation (words): only modest anti-syncytial activity
[1]
  α-helical content: 20%
